Measured values reported in patent US5510459A, “Glucagon antagonists” (ZymoGenetics, Inc., priority 1992, dated 1996).
Ends that are not written are not given here.

How the values were obtained:
[1] = biological target: T1, glucagon receptor (rat liver membrane adenylate cyclase) (Rattus norvegicus, UniProt P30082); assay: Adenylate cyclase activity assay with synthetic peptide glucagon analogs (Example 6); assay type: biochemical; settings: synthetic peptides; in the presence of 20 nm glucagon
T1 construct: A. Preparation of Rat Liver Membranes; from tissue; host or cells: rat liver (Sprague-Dawley) plasma membranes
Experimental: The adenylate cyclase assay was carried out byfirst adding 5 μl of sample (e.g. yeast broth) containingpotential inhibitors at micromolar concentrations to eachwell of a 96-well microtiter plate. […] Fifty microliters of the A+Bsolution was added to each "no glucagon" control well.Glucagon was added from the "G" solution to the remainingA+B solution to a concentration of 1×10^-8 M (thisresults in a final assay concentration of 5×10^-9).Fifty microliters of the A+B+glucagon solution was addedto each well, excluding the "no glucagon" controls. Themembrane preparation was diluted to approximately 2 mg/mlprotein with water. The reaction was started by theaddition of 45 μl of diluted membrane to each well, inorder. The assays were incubated for 12 minutes at roomtemperature, and were stopped by the addition of 100 μl ofStop Mix to each well in the same order that the dilutedmembrane was added. The assay mixtures were clarified bycentrifugation, and the assays were stored at 4° C.
Cyclic AMP concentrations were determined usingan Amersham Scintillation Proximity Assay Kit (Amersham,Arlington Heights, Ill.). Briefly, 10 μl from eachadenylate cyclase reaction was added to individual betaplate wells. Each sample was diluted with 65 μl of 50 mM Na Acetate. Cyclic AMP standards were prepared at 0.0,1.6 and 6.4×10^-9 M or may be prepared from the"non-standards" supplied with Amersham kit.Triplicate standards of 75 μl of each standard were addedto individual beta plate wells. Nonspecific binding (NSB)controls were prepared by adding 150 μl of 50 mM NaAcetate to triplicate beta plate wells. […] Seventy-fivemicroliters of diluted anti-rabbit SPA reagent was thenadded to each well, and the plates were sealed andincubated, with shaking, overnight at room temperature.The plates were counted for one minute per sample in abeta-plate counter. […] The percent response for thestandards and samples was determined using the formula: […]

[2] = biological target: T2, glucagon receptor (liver plasma membranes) (Rattus norvegicus, UniProt P30082); assay: Glucagon binding assay (125I-glucagon, liver plasma membranes); settings: 30 minute incubation at 30° C., peptide 1.5-800 ng/ml
T2 construct: 25 μl of freshly thawed plasmamembrane containing 10-20 μg of plasma membrane protein; from tissue
Experimental: The ability of the synthetic peptides to inhibitglucagon binding was determined by measuring the bindingof radiolabeled glucagon in the presence of syntheticpeptide relative to the binding of radiolabeled glucagonin the absence of the synthetic peptides. The syntheticpeptides were dissolved in 10% acetic acid and lyophilizedbefore use. Glucagon was dissolved in 10% acetic acid andlyophilized in 25-μg portions for use as standards. ^125 I-glucagonwith a specific activity of 11.1 kBq/ng wasobtained from Novo Biolabs (Novo Alle, Bagsvaerd, Denmark)and stored at -18° C. Plasma membranes were prepared aspreviously described, except protein detemination wascarried out using a Bio-Rad Protein Assay (BioRad,Richmond, Calif.) according to the manufacturer's directionsusing bovine serum albumin as a standard. Milli-Q gradewater was used throughout .
The lyophilized glucagon and synthetic peptideswere dissolved in 100 μl of 0.05M HCl, left for 3 minutes. The glucagon was diluted with buffer (2.5% humanserum albumin Grade 5, Sigma Chemical Co., St. Louis, Mo.! in 0.1M HEPES, 0.15M NaCl, pH 7.4) to 0.2-200ng/ml.The synthetic peptides were diluted with the same bufferto 1.5-800 ng/ml. […] The filters were counted in a gamma counter.The binding of des-His^1 -(Ala^2,11 -Glu^21)glucagonamide wasshown to be 84%±9.3.

[3] = biological target: T1, glucagon receptor (rat liver membrane adenylate cyclase); assay: Glucagon antagonist screening assay: adenylate cyclase reaction and cAMP assay with yeast culture broths; assay type: biochemical; settings: no exogenous glucagon
Source text: Young female Sprague-Dawley rats were used forthe preparation of liver membranes using the methodessentially described by Neville (ibid.) and modified byPohl et al. (ibid). Ten to 15 rats yielding 60-100 grams of liver were processed per batch. After the rats wereeuthanized by cervical dislocation, their livers weresurgically removed and transferred, as quickly aspossible, to an iced beaker. Scissors were used to mincethe tissue into pieces approximately 3-6 mm in size. Anyconnective tissue that was present was removed.
The minced tissue was suspended in ice cold 1 mMsodium bicarbonate at a concentration of approximately300 g/l. This suspension was processed in batches in atissue homogenizer with eight strokes of the loose pestle.The homogenate was mixed with additional ice cold 1 mMsodium bicarbonate to yield a final concentration of about40-80 g/l. […]
After centrifugation, as much of the supernatantas possible was carefully decanted and discarded, and thepellets were gently resuspended in the remainingsupernatant with three strokes of the loose pestle in aclean tissue homogenizer. […] After thorough mixing, thesucrose concentration was measured with a refractometerand adjusted to between 43.9% and 44.1% sucrose(corresponding to a refractive index between 1.4076 and1.4080) with either 69% sucrose or water. […]

T1 sequence (P30082 27-485): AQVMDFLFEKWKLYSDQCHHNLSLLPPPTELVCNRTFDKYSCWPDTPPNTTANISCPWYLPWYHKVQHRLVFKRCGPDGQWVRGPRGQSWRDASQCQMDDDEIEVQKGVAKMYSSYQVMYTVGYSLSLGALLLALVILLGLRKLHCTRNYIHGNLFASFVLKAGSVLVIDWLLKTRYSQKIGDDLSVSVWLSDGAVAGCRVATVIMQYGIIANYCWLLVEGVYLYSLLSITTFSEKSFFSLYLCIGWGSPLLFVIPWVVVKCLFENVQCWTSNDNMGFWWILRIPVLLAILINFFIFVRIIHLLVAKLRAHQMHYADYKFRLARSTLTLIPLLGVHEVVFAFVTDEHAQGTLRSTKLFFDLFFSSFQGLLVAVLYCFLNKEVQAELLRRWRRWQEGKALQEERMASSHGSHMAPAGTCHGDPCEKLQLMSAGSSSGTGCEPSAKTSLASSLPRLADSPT
T2 sequence (P30082 27-485): as above

Row | Compound | inhibition coefficient (I/A50): ratio of inhibitor to agonist concentration wherein the response is reduced to one-half [1] | further results
1 | CSCC[C@H](NC(=O)[C@H](CC(C)C)NC(=O)[C@H](Cc1c[nH]c2ccccc12)NC(=O)[C@H](CCC(N)=O)NC(=O)[C@@H](NC(=O)[C@H](Cc1ccccc1)NC(=O)[C@H](CC(=O)O)NC(=O)[C@H](CCC(N)=O)NC(=O)[C@H](C)NC(=O)[C@H](CCCNC(=N)N)NC(=O)[C@H](CCCNC(=N)N)NC(=O)[C@H](CO)NC(=O)[C@H](CC(=O)O)NC(=O)[C@H](CC(C)C)NC(=O)[C@H](Cc1ccc(O)cc1)NC(=O)[C@H](CCCCN)NC(=O)[C@H](CO)NC(=O)[C@H](Cc1ccc(O)cc1)NC(=O)[C@H](CC(=O)O)NC(=O)[C@H](CO)NC(=O)[C@@H](NC(=O)[C@H](Cc1ccccc1)NC(=O)[C@@H](NC(=O)CNC(=O)[C@H](CCC(N)=O)NC(=O)[C@@H](N)CO)[C@@H](C)O)[C@@H](C)O)C(C)C)C(=O)N[C@@H](CC(N)=O)C(=O)N[C@@H](CO)C(=O)O [F73, des-His^1 - Ser^29 !glucagon] | 30 | –
2 | AQGTFTSDYAKYLDSRRAQEFVQWLMNT-NH2 [des-His^1 -(Ala^2,11 -Glu^21)glucagon amide] | – | binding (inhibition of radiolabeled glucagon binding) [2]: 84%±9.3
3 | DAQGTFISDYSKYLDSRRAQDFVQWLMNT [BB65, Asp^1 -Ala^2 -Ile^7 !glucagon] | 25 | –
4 | SQSTFTSDYSKYLDSRRAQDFVQWLMNT [G56, des-His^1 - Ser^4 !glucagon] | 25 | –
5 | glucagon [ZB210] | – | stimulation of adenylate cyclase activity by culture broth in the absence of exogenous glucagon [3]: stimulation of adenylate cyclase
